Measurements as given in ChEMBL document CHEMBL5260810, “Inhibition of bromodomain-containing protein 9 for the prevention of epigenetically-defined drug resistance” (Bioorg Med Chem Lett, 2017).

target: RAC-alpha serine/threonine-protein kinase (Homo sapiens) (UniProt P31749); assay: Inhibition of AKT1 (unknown origin) at 1 uM relative to control; conditions: not given
Sequence (P31749 whole entry): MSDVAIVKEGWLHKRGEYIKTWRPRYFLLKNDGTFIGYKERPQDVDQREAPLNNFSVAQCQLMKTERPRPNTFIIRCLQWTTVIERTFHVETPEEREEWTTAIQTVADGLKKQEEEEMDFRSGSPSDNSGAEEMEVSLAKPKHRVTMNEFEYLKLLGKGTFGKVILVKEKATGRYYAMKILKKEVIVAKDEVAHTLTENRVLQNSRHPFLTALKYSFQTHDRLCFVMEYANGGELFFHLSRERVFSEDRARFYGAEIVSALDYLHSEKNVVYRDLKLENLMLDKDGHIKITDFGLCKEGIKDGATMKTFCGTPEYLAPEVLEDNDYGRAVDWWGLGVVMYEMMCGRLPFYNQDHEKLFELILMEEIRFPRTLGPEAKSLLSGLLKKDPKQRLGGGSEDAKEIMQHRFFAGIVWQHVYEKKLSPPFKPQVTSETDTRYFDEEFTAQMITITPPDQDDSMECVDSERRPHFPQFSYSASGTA

| Structure (SMILES) | inhibition |
| --- | --- |
| C/C=C/Cn1cc(-c2ccc(C(=O)N3CCOCC3)cc2)c2cc[nH]c2c1=O | -2.1% |

target: T1, Bromodomain-containing protein 4 (Homo sapiens, UniProt O60885); assay: Binding affinity to human partial length BRD4 bromodomain 1 long isoform (N44 to E168 residues) expressed in bacterial expression system by BROMOscan assay; conditions: not given

| Structure (SMILES) | Kd |
| --- | --- |
| C/C=C/Cn1cc(-c2cc(OC)c(C(C)(C)O)cc2OC)c2cc(C)[nH]c2c1=O | 9.4 µM |
| C/C=C/Cn1cc(-c2ccc(C(=O)N3CCOCC3)cc2)c2cc[nH]c2c1=O | 1.7 µM |

target: Bromodomain adjacent to zinc finger domain protein 2B (Homo sapiens, UniProt Q9UIF8); assay: Binding affinity to human partial length BAZ2B (S2054 to S2168 residues) expressed in bacterial expression system by BROMOscan assay; conditions: not given
Sequence (Q9UIF8 whole entry, the tested form may be a part): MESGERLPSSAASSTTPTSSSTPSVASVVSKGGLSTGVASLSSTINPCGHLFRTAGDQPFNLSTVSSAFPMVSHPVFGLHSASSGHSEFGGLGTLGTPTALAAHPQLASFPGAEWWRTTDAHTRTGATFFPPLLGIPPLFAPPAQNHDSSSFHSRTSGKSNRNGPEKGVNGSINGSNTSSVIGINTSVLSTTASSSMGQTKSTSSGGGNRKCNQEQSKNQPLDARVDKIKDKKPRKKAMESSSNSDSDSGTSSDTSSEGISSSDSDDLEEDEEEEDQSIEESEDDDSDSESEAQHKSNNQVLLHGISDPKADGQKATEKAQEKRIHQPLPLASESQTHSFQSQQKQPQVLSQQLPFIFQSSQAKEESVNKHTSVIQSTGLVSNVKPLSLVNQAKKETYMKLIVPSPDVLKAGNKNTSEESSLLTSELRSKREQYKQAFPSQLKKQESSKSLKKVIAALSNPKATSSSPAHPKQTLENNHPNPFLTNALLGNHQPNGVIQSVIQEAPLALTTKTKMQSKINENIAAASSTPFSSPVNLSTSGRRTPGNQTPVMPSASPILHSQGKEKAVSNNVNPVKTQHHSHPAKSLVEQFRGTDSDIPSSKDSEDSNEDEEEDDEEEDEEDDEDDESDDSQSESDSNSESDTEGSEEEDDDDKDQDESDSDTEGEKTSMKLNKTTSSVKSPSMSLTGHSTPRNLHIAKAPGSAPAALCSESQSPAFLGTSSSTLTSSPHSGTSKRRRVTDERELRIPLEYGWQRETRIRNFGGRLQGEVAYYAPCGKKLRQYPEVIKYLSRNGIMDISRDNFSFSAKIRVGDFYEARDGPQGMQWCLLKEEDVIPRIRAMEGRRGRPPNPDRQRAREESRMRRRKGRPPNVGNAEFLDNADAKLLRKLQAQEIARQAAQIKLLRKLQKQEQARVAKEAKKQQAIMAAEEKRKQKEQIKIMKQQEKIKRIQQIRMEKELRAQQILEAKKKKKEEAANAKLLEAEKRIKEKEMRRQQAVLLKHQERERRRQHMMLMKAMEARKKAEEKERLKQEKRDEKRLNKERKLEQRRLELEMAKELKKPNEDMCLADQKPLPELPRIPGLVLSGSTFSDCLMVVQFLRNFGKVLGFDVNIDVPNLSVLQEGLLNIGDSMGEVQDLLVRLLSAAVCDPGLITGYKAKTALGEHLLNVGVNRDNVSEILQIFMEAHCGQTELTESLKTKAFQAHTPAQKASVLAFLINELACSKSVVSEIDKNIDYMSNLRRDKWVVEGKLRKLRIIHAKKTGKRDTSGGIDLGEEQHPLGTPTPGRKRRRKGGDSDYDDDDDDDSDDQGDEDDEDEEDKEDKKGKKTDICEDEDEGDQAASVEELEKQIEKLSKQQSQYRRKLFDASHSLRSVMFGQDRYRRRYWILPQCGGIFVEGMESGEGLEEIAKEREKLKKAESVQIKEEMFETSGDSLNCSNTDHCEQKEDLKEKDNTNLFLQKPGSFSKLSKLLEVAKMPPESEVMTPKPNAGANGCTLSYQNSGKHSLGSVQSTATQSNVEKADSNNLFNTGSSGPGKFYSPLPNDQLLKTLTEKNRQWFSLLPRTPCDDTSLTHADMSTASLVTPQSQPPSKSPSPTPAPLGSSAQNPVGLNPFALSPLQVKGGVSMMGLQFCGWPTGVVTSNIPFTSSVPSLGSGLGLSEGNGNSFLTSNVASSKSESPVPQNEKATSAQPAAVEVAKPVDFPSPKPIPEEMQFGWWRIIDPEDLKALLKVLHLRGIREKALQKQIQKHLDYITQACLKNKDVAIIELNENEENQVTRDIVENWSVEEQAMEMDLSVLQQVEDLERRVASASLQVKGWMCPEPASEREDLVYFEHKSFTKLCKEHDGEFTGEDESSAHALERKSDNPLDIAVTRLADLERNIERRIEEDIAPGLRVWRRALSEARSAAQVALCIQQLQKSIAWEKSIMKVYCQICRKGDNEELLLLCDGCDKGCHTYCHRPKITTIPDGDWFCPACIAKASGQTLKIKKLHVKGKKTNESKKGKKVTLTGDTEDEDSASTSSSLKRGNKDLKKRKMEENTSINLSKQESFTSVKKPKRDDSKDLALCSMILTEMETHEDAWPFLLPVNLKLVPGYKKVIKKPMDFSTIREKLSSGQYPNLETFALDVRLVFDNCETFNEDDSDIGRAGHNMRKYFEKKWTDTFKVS

| Structure (SMILES) | Kd |
| --- | --- |
| C/C=C/Cn1cc(-c2cc(OC)c(C(C)(C)O)cc2OC)c2cc(C)[nH]c2c1=O | > 10 µM |
| C/C=C/Cn1cc(-c2ccc(C(=O)N3CCOCC3)cc2)c2cc[nH]c2c1=O | > 10 µM |

target: Protein polybromo-1 (Homo sapiens, UniProt Q86U86); assay: Binding affinity to human partial length PBRM1 bromodomain 5 (S645 to D766 residues) expressed in bacterial expression system by BROMOscan assay; conditions: not given

| Structure (SMILES) | Kd |
| --- | --- |
| C/C=C/Cn1cc(-c2cc(OC)c(C(C)(C)O)cc2OC)c2cc(C)[nH]c2c1=O | > 10 µM |
| C/C=C/Cn1cc(-c2ccc(C(=O)N3CCOCC3)cc2)c2cc[nH]c2c1=O | 26 µM |

system: not listed separately; assay: Cytotoxicity against human OCUM-1 cells measured after 8 days; assay type: functional, cell-based; conditions: OCUM1, 192 h

| Structure (SMILES) | IC50 |
| --- | --- |
| C/C=C/Cn1cc(-c2ccc(C(=O)N3CCOCC3)cc2)c2cc[nH]c2c1=O | 20 µM |

system: not listed separately; assay: Cytotoxicity against human SW527 cells measured after 8 days; assay type: functional, cell-based; conditions: SW527, 192 h

| Structure (SMILES) | IC50 |
| --- | --- |
| C/C=C/Cn1cc(-c2ccc(C(=O)N3CCOCC3)cc2)c2cc[nH]c2c1=O | 20 µM |

system: SW-620; assay: Cytotoxicity against human SW620 cells measured after 8 days; assay type: functional, cell-based; conditions: SW-620, 192 h

| Structure (SMILES) | IC50 |
| --- | --- |
| C/C=C/Cn1cc(-c2ccc(C(=O)N3CCOCC3)cc2)c2cc[nH]c2c1=O | 20 µM |

system: Daudi; assay: Cytotoxicity against human Daudi cells measured after 8 days; assay type: functional, cell-based; conditions: 192 h

| Structure (SMILES) | IC50 |
| --- | --- |
| C/C=C/Cn1cc(-c2ccc(C(=O)N3CCOCC3)cc2)c2cc[nH]c2c1=O | 20 µM |

target: T2, Bromodomain-containing protein 1 (Homo sapiens, UniProt O95696); assay: Binding affinity to human partial length BRD1 (E556 to A688 residues) expressed in bacterial expression system by BROMOscan assay; conditions: not given
T2 sequence (O95696 whole entry): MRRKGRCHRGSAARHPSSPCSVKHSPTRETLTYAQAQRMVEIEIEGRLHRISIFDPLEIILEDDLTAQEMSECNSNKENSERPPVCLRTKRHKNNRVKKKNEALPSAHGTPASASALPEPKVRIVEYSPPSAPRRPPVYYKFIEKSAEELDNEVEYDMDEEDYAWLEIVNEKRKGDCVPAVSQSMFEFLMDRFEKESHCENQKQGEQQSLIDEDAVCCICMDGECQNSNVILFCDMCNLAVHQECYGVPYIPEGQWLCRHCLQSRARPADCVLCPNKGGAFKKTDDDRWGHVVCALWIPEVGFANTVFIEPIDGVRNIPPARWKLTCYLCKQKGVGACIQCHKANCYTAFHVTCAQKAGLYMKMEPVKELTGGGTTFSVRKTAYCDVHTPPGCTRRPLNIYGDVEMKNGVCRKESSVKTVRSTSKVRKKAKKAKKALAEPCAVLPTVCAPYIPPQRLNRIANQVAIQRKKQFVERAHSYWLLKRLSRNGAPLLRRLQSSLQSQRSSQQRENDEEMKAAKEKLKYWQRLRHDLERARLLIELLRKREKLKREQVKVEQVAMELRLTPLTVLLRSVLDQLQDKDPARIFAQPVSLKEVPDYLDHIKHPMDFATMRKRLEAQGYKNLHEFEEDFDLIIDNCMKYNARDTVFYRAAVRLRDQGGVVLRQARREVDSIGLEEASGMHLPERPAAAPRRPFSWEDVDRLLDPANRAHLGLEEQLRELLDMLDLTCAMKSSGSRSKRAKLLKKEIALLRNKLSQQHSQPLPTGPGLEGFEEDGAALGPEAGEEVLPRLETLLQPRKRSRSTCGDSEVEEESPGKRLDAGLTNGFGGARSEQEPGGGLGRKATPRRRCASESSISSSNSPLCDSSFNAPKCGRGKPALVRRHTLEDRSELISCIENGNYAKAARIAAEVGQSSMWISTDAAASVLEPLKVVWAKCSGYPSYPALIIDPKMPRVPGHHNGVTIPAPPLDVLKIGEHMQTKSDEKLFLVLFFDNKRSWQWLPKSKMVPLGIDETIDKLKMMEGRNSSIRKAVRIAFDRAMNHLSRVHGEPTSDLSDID

| Structure (SMILES) | Kd |
| --- | --- |
| C/C=C/Cn1cc(-c2cc(OC)c(C(C)(C)O)cc2OC)c2cc(C)[nH]c2c1=O | > 10 µM |
| C/C=C/Cn1cc(-c2ccc(C(=O)N3CCOCC3)cc2)c2cc[nH]c2c1=O | > 10 µM |

target: Adenosine receptor A2a (Homo sapiens) (UniProt P29274); assay: Displacement of [3H]-CGS 21680 from human recombinant adenosine A2A receptor at 10 uM after 120 mins by scintillation counting analysis relative to control; conditions: not given

| Structure (SMILES) | Activity |
| --- | --- |
| C/C=C/Cn1cc(-c2ccc(C(=O)N3CCOCC3)cc2)c2cc[nH]c2c1=O | 8% |

target: 5-hydroxytryptamine receptor 1B (Rattus norvegicus) (UniProt P28564); assay: Displacement of [125I]-CYP from rat brain 5-HT1B receptor at 10 uM after 120 mins by scintillation counting analysis relative to control; conditions: not given
Sequence (P28564 whole entry): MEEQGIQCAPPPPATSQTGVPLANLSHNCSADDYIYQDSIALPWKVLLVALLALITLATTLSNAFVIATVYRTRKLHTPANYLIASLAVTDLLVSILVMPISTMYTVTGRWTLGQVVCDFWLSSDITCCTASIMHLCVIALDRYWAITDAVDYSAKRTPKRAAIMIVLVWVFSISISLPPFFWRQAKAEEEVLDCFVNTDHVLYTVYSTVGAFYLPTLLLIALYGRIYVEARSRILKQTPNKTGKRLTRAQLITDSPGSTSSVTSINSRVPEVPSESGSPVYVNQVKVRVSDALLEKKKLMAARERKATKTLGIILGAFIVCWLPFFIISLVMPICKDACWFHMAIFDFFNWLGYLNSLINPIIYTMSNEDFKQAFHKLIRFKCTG

| Structure (SMILES) | Activity |
| --- | --- |
| C/C=C/Cn1cc(-c2ccc(C(=O)N3CCOCC3)cc2)c2cc[nH]c2c1=O | 8% |

target: Bromodomain testis-specific protein (Homo sapiens, UniProt Q58F21); assay: Binding affinity to BRDT bromodomain 1/2 (unknown origin) by BROMOscan assay; conditions: not given

| Structure (SMILES) | Kd |
| --- | --- |
| C/C=C/Cn1cc(-c2cc(OC)c(C(C)(C)O)cc2OC)c2cc(C)[nH]c2c1=O | 6.2 µM |
| C/C=C/Cn1cc(-c2ccc(C(=O)N3CCOCC3)cc2)c2cc[nH]c2c1=O | 2.9 µM |

system: not listed separately; assay: Cytotoxicity against human NCI-H2722 cells measured after 8 days; assay type: functional, cell-based; conditions: NCI-H2722, 192 h

| Structure (SMILES) | IC50 |
| --- | --- |
| C/C=C/Cn1cc(-c2ccc(C(=O)N3CCOCC3)cc2)c2cc[nH]c2c1=O | 20 µM |

system: RL; assay: Cytotoxicity against human RL cells measured after 8 days; assay type: functional, cell-based; conditions: 192 h

| Structure (SMILES) | IC50 |
| --- | --- |
| C/C=C/Cn1cc(-c2ccc(C(=O)N3CCOCC3)cc2)c2cc[nH]c2c1=O | 16.6 µM |

system: not listed separately; assay: Cytotoxicity against human KMS-27 cells measured after 8 days; assay type: functional, cell-based; conditions: KMS-27, 192 h

| Structure (SMILES) | IC50 |
| --- | --- |
| C/C=C/Cn1cc(-c2ccc(C(=O)N3CCOCC3)cc2)c2cc[nH]c2c1=O | 20 µM |

system: NUGC-4; assay: Cytotoxicity against human NUGC-4 cells measured after 8 days; assay type: functional, cell-based; conditions: NUGC-4, 192 h

| Structure (SMILES) | IC50 |
| --- | --- |
| C/C=C/Cn1cc(-c2ccc(C(=O)N3CCOCC3)cc2)c2cc[nH]c2c1=O | 20 µM |

system: OPM-2; assay: Cytotoxicity against human OPM-2 cells measured after 8 days; assay type: functional, cell-based; conditions: OPM-2, 192 h

| Structure (SMILES) | IC50 |
| --- | --- |
| C/C=C/Cn1cc(-c2ccc(C(=O)N3CCOCC3)cc2)c2cc[nH]c2c1=O | 10 µM |

target: Misshapen-like kinase 1 (Homo sapiens) (UniProt Q8N4C8); assay: Inhibition of Mink1 (unknown origin) at 1 uM relative to control; conditions: not given

| Structure (SMILES) | inhibition |
| --- | --- |
| C/C=C/Cn1cc(-c2ccc(C(=O)N3CCOCC3)cc2)c2cc[nH]c2c1=O | 1.5% |

system: SK-MES-1; assay: Cytotoxicity against human SK-MES-1 cells measured after 8 days; assay type: functional, cell-based; conditions: SK-MES-1, 192 h

| Structure (SMILES) | IC50 |
| --- | --- |
| C/C=C/Cn1cc(-c2ccc(C(=O)N3CCOCC3)cc2)c2cc[nH]c2c1=O | 20 µM |

system: MV4-11; assay: Cytotoxicity against human MV4-11 cells measured after 8 days; assay type: functional, cell-based; conditions: MV4-11, 192 h

| Structure (SMILES) | IC50 |
| --- | --- |
| C/C=C/Cn1cc(-c2ccc(C(=O)N3CCOCC3)cc2)c2cc[nH]c2c1=O | 6.86 µM |

system: not listed separately; assay: Cytotoxicity against human OVTOKO cells measured after 8 days; assay type: functional, cell-based; conditions: 192 h

| Structure (SMILES) | IC50 |
| --- | --- |
| C/C=C/Cn1cc(-c2ccc(C(=O)N3CCOCC3)cc2)c2cc[nH]c2c1=O | 17.7 µM |

target: Chromatin remodeling regulator CECR2 (Homo sapiens, UniProt Q9BXF3); assay: Binding affinity to human partial length CECR2 (P423 to D543 residues) expressed in bacterial expression system by BROMOscan assay; conditions: not given
Sequence (Q9BXF3 whole entry, the tested form may be a part): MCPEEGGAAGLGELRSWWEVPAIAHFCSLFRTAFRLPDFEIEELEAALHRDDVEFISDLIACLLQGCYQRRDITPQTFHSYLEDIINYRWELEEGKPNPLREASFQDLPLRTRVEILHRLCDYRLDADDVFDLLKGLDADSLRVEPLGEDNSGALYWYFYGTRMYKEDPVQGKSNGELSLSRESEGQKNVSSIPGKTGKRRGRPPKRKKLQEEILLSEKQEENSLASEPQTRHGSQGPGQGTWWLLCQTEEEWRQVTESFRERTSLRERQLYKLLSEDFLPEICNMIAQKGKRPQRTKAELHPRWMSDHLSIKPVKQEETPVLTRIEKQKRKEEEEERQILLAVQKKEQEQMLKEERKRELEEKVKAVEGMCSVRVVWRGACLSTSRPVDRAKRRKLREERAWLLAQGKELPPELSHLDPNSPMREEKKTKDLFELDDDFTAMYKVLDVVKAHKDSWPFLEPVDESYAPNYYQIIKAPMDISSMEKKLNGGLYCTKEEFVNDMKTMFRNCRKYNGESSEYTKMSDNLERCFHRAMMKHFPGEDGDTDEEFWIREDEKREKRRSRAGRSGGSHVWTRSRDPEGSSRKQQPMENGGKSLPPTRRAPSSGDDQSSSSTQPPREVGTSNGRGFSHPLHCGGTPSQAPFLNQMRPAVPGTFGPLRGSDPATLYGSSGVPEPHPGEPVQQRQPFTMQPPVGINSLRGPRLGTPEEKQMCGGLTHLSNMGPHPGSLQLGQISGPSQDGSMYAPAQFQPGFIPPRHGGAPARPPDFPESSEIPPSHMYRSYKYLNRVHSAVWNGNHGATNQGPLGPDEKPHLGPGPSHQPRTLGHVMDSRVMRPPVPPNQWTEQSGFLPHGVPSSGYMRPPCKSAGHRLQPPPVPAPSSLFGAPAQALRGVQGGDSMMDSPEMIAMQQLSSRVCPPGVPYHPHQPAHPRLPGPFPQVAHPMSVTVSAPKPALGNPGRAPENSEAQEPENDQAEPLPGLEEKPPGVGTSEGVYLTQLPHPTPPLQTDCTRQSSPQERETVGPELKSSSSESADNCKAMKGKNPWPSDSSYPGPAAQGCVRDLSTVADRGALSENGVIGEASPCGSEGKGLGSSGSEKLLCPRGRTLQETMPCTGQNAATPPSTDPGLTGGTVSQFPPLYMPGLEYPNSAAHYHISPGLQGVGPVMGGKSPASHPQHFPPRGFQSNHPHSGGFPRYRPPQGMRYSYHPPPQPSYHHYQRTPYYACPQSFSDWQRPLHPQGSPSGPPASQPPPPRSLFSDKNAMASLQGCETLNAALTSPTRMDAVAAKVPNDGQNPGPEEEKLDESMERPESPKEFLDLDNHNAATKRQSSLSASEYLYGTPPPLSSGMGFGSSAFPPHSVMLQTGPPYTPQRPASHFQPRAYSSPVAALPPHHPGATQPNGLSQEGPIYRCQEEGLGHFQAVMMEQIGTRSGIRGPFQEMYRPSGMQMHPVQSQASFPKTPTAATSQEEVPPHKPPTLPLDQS

| Structure (SMILES) | Kd |
| --- | --- |
| C/C=C/Cn1cc(-c2cc(OC)c(C(C)(C)O)cc2OC)c2cc(C)[nH]c2c1=O | > 10 µM |
| C/C=C/Cn1cc(-c2ccc(C(=O)N3CCOCC3)cc2)c2cc[nH]c2c1=O | 3.8 µM |

system: HCC4006; assay: Cytotoxicity against human HCC4006 cells measured after 8 days; assay type: functional, cell-based; conditions: HCC4006, 192 h

| Structure (SMILES) | IC50 |
| --- | --- |
| C/C=C/Cn1cc(-c2ccc(C(=O)N3CCOCC3)cc2)c2cc[nH]c2c1=O | 20 µM |

system: SNU-C1; assay: Cytotoxicity against human SNU-C1 cells measured after 8 days; assay type: functional, cell-based; conditions: SNU-C1, 192 h

| Structure (SMILES) | IC50 |
| --- | --- |
| C/C=C/Cn1cc(-c2ccc(C(=O)N3CCOCC3)cc2)c2cc[nH]c2c1=O | 20 µM |

system: SKM-1; assay: Cytotoxicity against human SKM-1 cells measured after 8 days; assay type: functional, cell-based; conditions: SKM-1, 192 h

| Structure (SMILES) | IC50 |
| --- | --- |
| C/C=C/Cn1cc(-c2ccc(C(=O)N3CCOCC3)cc2)c2cc[nH]c2c1=O | 13.9 µM |

target: T1, Bromodomain-containing protein 4; assay: Binding affinity to human partial length BRD4 bromodomain 2 long isoform (K333 to E460 residues) expressed in bacterial expression system by BROMOscan assay; conditions: not given

| Structure (SMILES) | Kd |
| --- | --- |
| C/C=C/Cn1cc(-c2cc(OC)c(C(C)(C)O)cc2OC)c2cc(C)[nH]c2c1=O | > 10 µM |
| C/C=C/Cn1cc(-c2ccc(C(=O)N3CCOCC3)cc2)c2cc[nH]c2c1=O | 6.6 µM |

system: ONS-76; assay: Cytotoxicity against human ONS-76 cells measured after 8 days; assay type: functional, cell-based; conditions: ONS-76, 192 h

| Structure (SMILES) | IC50 |
| --- | --- |
| C/C=C/Cn1cc(-c2ccc(C(=O)N3CCOCC3)cc2)c2cc[nH]c2c1=O | 20 µM |

system: HCC4017; assay: Cytotoxicity against human HCC4017 cells measured after 8 days; assay type: functional, cell-based; conditions: HCC4017, 192 h

| Structure (SMILES) | IC50 |
| --- | --- |
| C/C=C/Cn1cc(-c2ccc(C(=O)N3CCOCC3)cc2)c2cc[nH]c2c1=O | 20 µM |

system: not listed separately; assay: Cytotoxicity against human OV7 cells measured after 8 days; assay type: functional, cell-based; conditions: OV7, 192 h

| Structure (SMILES) | IC50 |
| --- | --- |
| C/C=C/Cn1cc(-c2ccc(C(=O)N3CCOCC3)cc2)c2cc[nH]c2c1=O | 20 µM |

system: EVSA-T; assay: Cytotoxicity against human EVSA-T cells measured after 8 days; assay type: functional, cell-based; conditions: 192 h

| Structure (SMILES) | IC50 |
| --- | --- |
| C/C=C/Cn1cc(-c2ccc(C(=O)N3CCOCC3)cc2)c2cc[nH]c2c1=O | 20 µM |

system: not listed separately; assay: Cytotoxicity against human NCI-H1339 cells measured after 8 days; assay type: functional, cell-based; conditions: NCI-H1339, 192 h

| Structure (SMILES) | IC50 |
| --- | --- |
| C/C=C/Cn1cc(-c2ccc(C(=O)N3CCOCC3)cc2)c2cc[nH]c2c1=O | 20 µM |

target: Muscarinic acetylcholine receptor M3 (Homo sapiens) (UniProt P20309); assay: Displacement of [3H]4-DAMP from human recombinant M3 receptor at 10 uM after 60 mins by scintillation counting analysis relative to control; conditions: not given
Sequence (P20309 whole entry, looked up): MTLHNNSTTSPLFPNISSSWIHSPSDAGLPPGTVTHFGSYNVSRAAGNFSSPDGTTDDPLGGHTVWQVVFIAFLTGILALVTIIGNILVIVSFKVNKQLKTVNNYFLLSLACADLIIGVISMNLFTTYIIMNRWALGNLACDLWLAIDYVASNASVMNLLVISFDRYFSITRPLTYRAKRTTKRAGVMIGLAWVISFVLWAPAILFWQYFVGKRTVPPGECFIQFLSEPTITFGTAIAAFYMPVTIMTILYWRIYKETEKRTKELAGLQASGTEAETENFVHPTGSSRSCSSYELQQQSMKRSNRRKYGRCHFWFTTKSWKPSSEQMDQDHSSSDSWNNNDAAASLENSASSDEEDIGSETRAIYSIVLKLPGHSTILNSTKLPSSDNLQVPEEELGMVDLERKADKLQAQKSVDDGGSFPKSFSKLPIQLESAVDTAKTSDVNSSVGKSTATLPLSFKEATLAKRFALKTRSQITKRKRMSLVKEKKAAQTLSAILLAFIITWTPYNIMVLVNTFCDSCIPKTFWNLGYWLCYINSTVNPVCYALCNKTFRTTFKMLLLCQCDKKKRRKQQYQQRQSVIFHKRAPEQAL

| Structure (SMILES) | Activity |
| --- | --- |
| C/C=C/Cn1cc(-c2ccc(C(=O)N3CCOCC3)cc2)c2cc[nH]c2c1=O | -13% |
